In this assay the test system is NF-kB activity in K562 and Granta cells. The assay is described as follows: NF-kB.Luc reporter assay, positive control. The note with it: TPA 5 ng/mL or 10 ng/mL (method), 5 h. In kind it is cell-based. On the procedure: We analyzed GR TR function using an NF-kB.Luc reporter assay with the irritating inflammatory agent phorbol 13-acetate 12-myristate (TPA) as an inducer of NF-kB signaling and positive control.
Figure 4 Effects of synephrine derivatives on GR transrepression in Granta lymphoma and K562 leukemia cells. (A) K562 and Granta cells stably infected with the lentiviruses bearing the NF-kB luciferase reporter. Cells were incubated for 5 h with the solvent (control), TPA (5 ng/mL), 4S-C2 (10 µM), 8S-E3 (10 µM), 10S-E2 (1 µM), or 13S-G2 (1 µM). Luciferase activity was determined as described in the Materials and Methods section. (B) IL1-α and IL6 mRNA expression in K562 and Granta cells. […] The mean ± SD was calculated for three individual samples/condition (n = 3). […]
Lentiviral stocks were generated using the lentiviral expression vector NF-kB. […] The infection efficiency exceeded 90% (tracked by GFP fluorescence).
Cells (10^4 cells/well in a 24-well plate), stably expressing Firefly Luciferase under the NF-kB promoter, were treated for 5 h with TPA (12-O-tetradecanoylphorbol-13-acetate, Boston, MA, USA, 10 ng/mL), 4S-C2 (10 µM), 8S-E3 (10 µM), 10S-E2 (1 µM), 13S-G2 (1 µM), or the vehicle. Luciferase activity was measured as described using a commercial Luciferase Assay (“Promega”, Madison, WI, USA) and Luminometer TD 20/20 (“Turner Design Instruments”, San Jose, CA, USA). […]
For orientation: Reporter assays use an easily measured gene product as a stand-in for the process of interest.

For `CCCCCCCCCCCCCC(=O)O[C@@H]1[C@@H](C)[C@@]2(O)[C@@H](C=C(CO)C[C@]3(O)C(=O)C(C)=C[C@@H]23)[C@@H]2C(C)(C)[C@]12OC(C)=O` [TPA, 12-O-tetradecanoylphorbol-13-acetate], the NF-kB activation was 5-9 fold.
